# Patent US20240360139A1, “BLOOD BRAIN BARRIER PENETRATING SELECTIVE INHIBITORS OF ROCK2 PROTEIN KINASES AND USES THEREOF” (GENOSCO Inc., priority 2023, published 2024)
# Columns and labels:
# [1] = biological target: T1, Recombinant ROCK1 (amino acids 1-477) (Homo sapiens, UniProt Q13464); experiment: ROCK inhibition assay, LANCE Ultra TR-FRET (ROCK1); assay type: biochemical; conditions: 1 mM of ATP
# T1 construct: Recombinant ROCK1 (amino acids 1-477)
# Experimental: (§1) Kinase IC50 was determined through an in vitro assay based on LANCE Ultra TR-FRET (Time-Resolved Fluorescence Resonance Energy Transfer) homogeneous technologies method 5 (Perkin Elmer). Recombinant ROCK1 (amino acids 1-477) and ROCK2 (amino acids 5-554) proteins were purchased from Carna Biosciences and SignalChem. Compound activities were measured by Envision and IC50s were calculated. The assays were performed in white LUMITRAC™ 200 96 well half-area microplates from Greiner Bio-One. The kinase reaction buffer consisted of 50 mM HEPES pH 7.5, 1 mM EGTA, 10 mM MgCl2, 2 mM DTT and 0.01% 10 Tween-20. Kinases were incubated with 50 nM (ULight-CREBtide) substrate in the presence of 1 mM (ROCK1) or 1 mM (ROCK2) of ATP. The kinase reaction was carried out for 1 hour before addition of a stopping buffer to a final of 10 mM EDTA and 0.6 nM of LANCE Ultra Europium anti-phospho-CREB (Ser133) antibody (PerkinElmer TRF0200) in LANCE detection buffer. All assay incubations were performed at room temperature, and the microplates were sealed with polyester film during that time. The reaction was incubated for 1 hour, and the signal was read in Envision in TR-FRET mode (excitation at 320 nm and emission at 615/665 nm).
# (§2) As used herein, a way to describe potency of inhibitory activity (nM) is a value of inhibitory activity at 50% (IC50).
# [2] = biological target: T2, Recombinant ROCK2 (amino acids 5-554) (Homo sapiens, UniProt O75116); experiment: ROCK inhibition assay, LANCE Ultra TR-FRET (ROCK2); assay type: biochemical; conditions: 1 mM of ATP
# T2 construct: ROCK2 (amino acids 5-554)
# Experimental: as §1, §2
# T1 sequence (Q13464 1-477): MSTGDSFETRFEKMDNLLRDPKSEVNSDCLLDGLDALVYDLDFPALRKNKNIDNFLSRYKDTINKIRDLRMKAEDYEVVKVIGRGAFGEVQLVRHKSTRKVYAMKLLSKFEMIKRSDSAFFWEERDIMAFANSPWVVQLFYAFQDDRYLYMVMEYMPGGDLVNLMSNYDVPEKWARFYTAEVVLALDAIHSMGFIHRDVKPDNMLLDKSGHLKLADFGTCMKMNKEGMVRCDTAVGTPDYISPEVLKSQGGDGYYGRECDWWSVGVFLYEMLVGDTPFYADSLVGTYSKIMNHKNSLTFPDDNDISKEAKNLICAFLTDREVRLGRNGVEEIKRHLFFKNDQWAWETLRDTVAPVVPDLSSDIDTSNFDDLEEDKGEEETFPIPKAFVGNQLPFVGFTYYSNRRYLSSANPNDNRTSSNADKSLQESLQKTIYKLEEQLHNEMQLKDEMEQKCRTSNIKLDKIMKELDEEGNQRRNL
# T2 sequence (O75116 5-554): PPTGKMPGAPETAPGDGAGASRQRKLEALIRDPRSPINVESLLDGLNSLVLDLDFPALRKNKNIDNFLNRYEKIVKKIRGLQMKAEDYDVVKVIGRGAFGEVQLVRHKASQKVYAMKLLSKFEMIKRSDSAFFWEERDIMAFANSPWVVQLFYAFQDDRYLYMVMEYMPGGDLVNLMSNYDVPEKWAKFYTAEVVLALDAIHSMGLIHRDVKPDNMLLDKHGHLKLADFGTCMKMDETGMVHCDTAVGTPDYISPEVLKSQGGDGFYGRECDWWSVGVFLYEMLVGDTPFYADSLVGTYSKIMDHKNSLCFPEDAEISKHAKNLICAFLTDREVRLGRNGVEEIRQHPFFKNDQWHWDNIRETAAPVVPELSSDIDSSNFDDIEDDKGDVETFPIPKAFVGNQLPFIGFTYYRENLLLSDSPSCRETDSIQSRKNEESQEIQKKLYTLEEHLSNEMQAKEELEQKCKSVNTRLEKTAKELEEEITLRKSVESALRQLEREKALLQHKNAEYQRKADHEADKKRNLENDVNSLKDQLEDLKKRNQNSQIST
Compound,IC50 [1] [nM],IC50 [2] [nM]
CN(C)CCn1nc(C(=O)[C@@H]2COc3ccccc3O2)c2ccc(-c3cn[nH]c3)cc21 [Compound 5-44],201 to 500,21 to 200
COc1ccc2c(c1)CC(C(=O)c1cn(C[C@H]3CCN3)c3cc(-c4cn[nH]c4Cl)ccc13)CO2 (some centres unmarked) [Compound 1-35],21 to 200,< 20
CCN1CC[C@@H]1Cn1cc(C(=O)[C@@H]2COc3ccc(OC)cc3C2)c2ccc(-c3cn[nH]c3Cl)cc21 [Compound 1-59],> 501,< 20
"NCCn1cc(C(=O)C2COc3ccc(Cl)cc3C2)c2cnc(-c3c[nH]nc3Cl)cc21 (centres unmarked) [Compound 2-1, [1-(2-aminoethyl)-6-(3-chloro-1H-pyrazol-4-yl)pyrrolo[3,2-c]pyridin-3-yl]-(6-chlorochroman-3-yl) methanone]",21 to 200,< 20
Cc1nocc1-c1ccc2c(C(=O)C3COc4ccc(F)cc4C3)cn(CCN(C)C)c2c1 (centres unmarked) [Compound 5-26],> 501,> 501
CNCCn1cc(C(=O)C2COc3ccc(F)cc3C2)c2ccc(-c3c[nH]nc3Cl)cc21 (centres unmarked) [Compound 3-5],201 to 500,< 20
COc1ccc2c(c1)CC(C(=O)c1nn(CCN(C)C)c3cc(-c4c[nH]nc4Cl)ccc13)CO2 (centres unmarked) [Compound 5-50],21 to 200,< 20
"COc1[nH]ncc1-c1cc2c(cn1)c(C(=O)C1COc3ccc(Cl)cc3C1)cn2CCN(C)C (centres unmarked) [Compound 1-3, (6-chlorochroman-3-yl)(1-(2-(dimethylamino)ethyl)-6-(5-methoxy-1H-pyrazol-4-yl)-1H-pyrrolo[3,2-c]pyridin-3-yl)methanone dimethanesulfonic acid]",> 501,21 to 200
CN(C)CCn1cc(C(=O)C2COc3ccc(Cl)cc3O2)c2ccc(-c3c[nH]nc3Cl)cc21 (centres unmarked) [Compound 5-17],> 501,> 501
CN(C)CCn1cc(C(=O)C2COc3ccc(F)cc3C2)c2cnc(-c3c[nH]nc3Cl)cc21 (centres unmarked) [Compound 1-12],> 501,201 to 500
COc1n[nH]cc1-c1ccc2c(C(=O)C3COc4ccc(Cl)cc4C3)cn(C[C@H](C)N)c2c1 (some centres unmarked) [Compound 2-9],201 to 500,< 20
"C[C@@H](Cn1cc(C(=O)C2COc3ccc(Cl)cc3C2)c2ccc(-c3cn[nH]c3Cl)cc21)N(C)C (stereo partly drawn) [Compound 2-12, (6-chlorochroman-3-yl)-[6-(5-chloro-1H-pyrazol-4-yl)-1-[(2S)-2-(dimethylamino)propyl]indol-3-yl]methanone]",> 501,< 20
CCN(C)CCn1cc(C(=O)[C@@H]2COc3ccc(OC)cc3C2)c2ccc(-c3cn[nH]c3Cl)cc21 [Compound 3-26],> 501,< 20
COc1ccc2c(c1)C[C@H](C(=O)c1cn(CCN(C)C)c3cc(-c4c[nH]nc4Cl)ccc13)CO2 [Compound 5-4],> 501,< 20
COc1ccc2c(c1)CC(C(=O)c1nn(CCN(C)C)c3cc(-c4c[nH]nc4OC)ccc13)CO2 (centres unmarked) [Compound 5-49],21 to 200,< 20
CN(C)CCn1nc(C(=O)C2COc3ccc(Cl)cc3O2)c2ccc(-c3c[nH]nc3F)cc21 (centres unmarked) [Compound 5-60],> 501,21 to 200
C[C@H](N)Cn1cc(C(=O)C2COc3ccc(Cl)cc3C2)c2ccc(-c3cn[nH]c3F)cc21 (some centres unmarked) [Compound 2-8],> 501,> 501
COc1[nH]ncc1-c1ccc2c(C(=O)C3COc4ccc(Cl)cc4C3)cn(CC3CNC3)c2c1 (centres unmarked) [Compound 1-22],< 20,< 20
CNCCn1cc(C(=O)C2COc3ccc(F)cc3C2)c2ccc(-c3c[nH]nc3Cl)nc21 (centres unmarked) [Compound 3-3],> 501,21 to 200
CN(C)C1(Cn2cc(C(=O)C3COc4ccc(Cl)cc4C3)c3ccc(-c4cn[nH]c4Cl)cc32)CC1 (centres unmarked) [Compound 2-13],21 to 200,21 to 200
COc1[nH]ncc1-c1ccc2c(C(=O)[C@@H]3COc4ccc(F)cc4C3)cn(CCN(C)C)c2c1 [Compound 5-39],> 501,–
